In general, IC50 refers to the concentration at which inhibition is half-maximal. Read a high IC50 as weaker potency in that assay. A word on the EC50: it is the midpoint of the concentration-response curve.

Structures are written as SMILES.

Experimental findings from ChEMBL document CHEMBL1131012, “Heteroaryl analogues of AMPA. 2. Synthesis, absolute stereochemistry, photochemistry, and structure-activity relationships” (J Med Chem, 1998) are described below.

One test addresses Glutamate NMDA receptor. The experiment in a line: Ability to inhibit the binding of [3H]CPP radioligand to N-methyl-D-aspartate glutamate receptor in rat brain membranes. The test is classed as cell membranes.
Test [1] deals with T1, Glutamate receptor ionotropic, AMPA (Rattus norvegicus, UniProt P19490+P19491+P19492+P19493).
Description: Agonist effect for Ionotropic glutamate receptor AMPA was determined from in vitro electrophysiology studies using rat cortical wedge preparation.
Test [2] concerns the target Glutamate receptor ionotropic, kainate. The experiment in a line: Ability to inhibit the binding of [3H]-kainic acid radioligand to Ionotropic glutamate receptor kainate in rat brain membranes. The format is cell membranes.
Test [3] concerns the target T1, Glutamate receptor ionotropic, AMPA. The source holds these as a separate data set.
Description: Ability to inhibit the binding of [3H]AMPA radioligand to Ionotropic glutamate receptor AMPA in rat brain membranes.

With `NC(Cc1c(O)noc1-c1nccs1)C(=O)O` (stereo unspecified), the half-inhibitory concentration (IC50) is greater than 100 µM at Glutamate NMDA receptor, 4.9 µM in test [2] and 0.094 µM in test [3]. The molecule further yielded an EC50 in test [1] of 2.3 µM.

With `NC(Cc1c(O)noc1-c1cccnc1)C(=O)O` (stereo unspecified), the IC50 (on Glutamate NMDA receptor; in test [2]; in test [3]) was greater than 100 µM throughout. Besides, the EC50 in test [1] was greater than 1000 µM.

Turning to `N[C@H](Cc1c(O)noc1-c1ccccn1)C(=O)O`, the half-maximal inhibitory concentration (IC50) (on Glutamate NMDA receptor; in test [2]; in test [3]) was greater than 100 µM throughout. Also, the half-maximal effective concentration (EC50) in test [1] was greater than 100 µM.

On to `N[C@H](Cc1c(O)noc1-c1ccccc1)C(=O)O`, for which the concentration giving a half-maximal response (EC50) in test [1] was greater than 100 µM.

In the case of `NC(Cc1c(O)noc1-c1ccc(Br)o1)C(=O)O` (stereo unspecified), the half-maximal inhibitory concentration (IC50) is greater than 100 µM at Glutamate NMDA receptor, greater than 100 µM in test [2] and 12 µM in test [3]. A half-maximal response in test [1] (EC50) required 160 µM.

As for `Cc1cccc(-c2onc(O)c2CC(N)C(=O)O)n1` (stereo unspecified), the 50% inhibitory concentration (IC50) (on Glutamate NMDA receptor; in test [2]; in test [3]) was greater than 100 µM each time. Besides, in test [1], the EC50 is greater than 1000 µM.

In the case of `NC(Cc1c(O)noc1-c1ccc2ccccc2n1)C(=O)O` (stereo unspecified), the IC50 (at Glutamate NMDA receptor; in test [2]; in test [3]) was greater than 100 µM each time. This molecule also had an EC50 in test [1] greater than 1000 µM.

With `N[C@@H](Cc1c(O)noc1-c1ccccn1)C(=O)O`, the half-maximal inhibitory concentration (IC50) at Glutamate NMDA receptor is greater than 100 µM; in test [2], greater than 100 µM; in test [3] it was 0.19 µM. In addition, the midpoint of the response in test [1], the EC50, lay at 4.5 µM.

Molecule `N[C@@H](Cc1c(-c2ccccc2)o[nH]c1=O)C(=O)O` gave a half-inhibitory concentration (IC50) in test [3] of 5.5 µM.

As to `N[C@H](Cc1c(O)noc1-c1ccco1)C(=O)O`, the concentration for half-maximal inhibition (IC50) is greater than 100 µM on Glutamate NMDA receptor, greater than 100 µM in test [2] and 100 µM in test [3]. Further, the EC50 in test [1] was greater than 1000 µM.

In the case of `NC(Cc1c(O)noc1-c1ccccn1)C(=O)O` (stereo unspecified), the concentration for half-maximal inhibition (IC50) was greater than 100 µM at Glutamate NMDA receptor, greater than 100 µM in test [2] and 0.57 µM in test [3]. Also, a half-maximal response in test [1] (EC50) required 7.4 µM.

Consider `NC(Cc1c(O)noc1-c1ccncc1)C(=O)O` (stereo unspecified), for which the IC50 was greater than 100 µM on Glutamate NMDA receptor, greater than 100 µM in test [2] and 5.5 µM in test [3]. Also, the EC50 in test [1] was found to be 96 µM.

As to `NC(Cc1c(O)noc1-c1ccco1)C(=O)O` (stereo unspecified), the IC50 at Glutamate NMDA receptor was greater than 100 µM; in test [2], greater than 100 µM; in test [3], 0.15 µM. The EC50 in test [1] was determined as 1.7 µM.

Regarding `N[C@@H](Cc1c(O)noc1-c1ccco1)C(=O)O`, the concentration for half-maximal inhibition (IC50) at Glutamate NMDA receptor is greater than 100 µM; in test [2], greater than 100 µM; in test [3], 0.11 µM. Further, a half-maximal effect in test [1] (EC50) was put at 0.71 µM.

`C=C(C)[C@H]1CN[C@H](C(=O)O)[C@H]1CC(=O)O` [KAINIC ACID] displayed an IC50 on Glutamate NMDA receptor greater than 100 µM.
